Converted amounts (≈) assume the structure as drawn. Where a name gives a salt, the structure may show the parent alone. Read-outs that look alike come from different tables or passages of the source. Blank lines part the entries; values can stand above or below the compound they belong to.
Experiments:
[1] = system: A375 cells; assay: Flow cytometry (PI) G2/M accumulation and sub-G1 apoptosis, A375; type: cell-based, human; conditions: Homo sapiens, A-375, read-out: SEC50 (dose inducing 50% of the enhancing activity to vindesine)
Experimental: A375 and NCTC2544 adherent cells were trypsinized, mixed with floating cells, washed with PBS and permeabilised in 70% (vol/vol) ethanol/PBS solution at 4° C. for at least 24 hours. Jurkat, HeL023 and PBMC cells were centrifuged for 10 minutes at 1000×g. The cell pellet was then resuspended and permeabilised in 70% (vol/vol) ethanol/PBS solution at 4° C. for at least 24 hours. The cells were washed with PBS and the DNA was stained with a PBS solution, containing 20 μg/ml of propidium iodide and 100 μg/ml of RNAse, at room temperature for 30 minutes. Cells were analysed by FACScan (Becton-Dickinson) and the content of DNA was evaluated by the Cell-LISYS program (Becton-Dickinson). Cell distribution among cell cycle phases and apoptotic cells was evaluated as previously described (Secchiero et al., 2001). Briefly, the cell cycle distribution is shown as the percentage of cells containing 2n (G1 phase), 4n (G2 and M phases), 4n>x>2n. DNA amount (S phase) judged by propidium iodide staining. The apoptotic population is the percentage of cells with DNA content lower than 2n.
Cell proliferation and apoptosis are quantified by flow cytometer analysis after propidium-iodide (PI) DNA staining.

[2] = target: T1, P-gp drug efflux activity in HeL023 cells (Homo sapiens, UniProt P08183); assay: Rhodamine 123 efflux assay, HeL023 cells; type: cell-based; conditions: for inhibition of P-gp activity (in words): Rh123 efflux, concentrations of Table 11 (MRE3008F20 10 μM); for % of Rh123 negative cells: cells expressing P-gp activity
T1 construct: nearly all (100±1%) the cells expressing high level of functional P-gp; endogenous in cells; host or cells: HeL023 human erythroleukemia cells
T1 sequence (P08183 whole entry): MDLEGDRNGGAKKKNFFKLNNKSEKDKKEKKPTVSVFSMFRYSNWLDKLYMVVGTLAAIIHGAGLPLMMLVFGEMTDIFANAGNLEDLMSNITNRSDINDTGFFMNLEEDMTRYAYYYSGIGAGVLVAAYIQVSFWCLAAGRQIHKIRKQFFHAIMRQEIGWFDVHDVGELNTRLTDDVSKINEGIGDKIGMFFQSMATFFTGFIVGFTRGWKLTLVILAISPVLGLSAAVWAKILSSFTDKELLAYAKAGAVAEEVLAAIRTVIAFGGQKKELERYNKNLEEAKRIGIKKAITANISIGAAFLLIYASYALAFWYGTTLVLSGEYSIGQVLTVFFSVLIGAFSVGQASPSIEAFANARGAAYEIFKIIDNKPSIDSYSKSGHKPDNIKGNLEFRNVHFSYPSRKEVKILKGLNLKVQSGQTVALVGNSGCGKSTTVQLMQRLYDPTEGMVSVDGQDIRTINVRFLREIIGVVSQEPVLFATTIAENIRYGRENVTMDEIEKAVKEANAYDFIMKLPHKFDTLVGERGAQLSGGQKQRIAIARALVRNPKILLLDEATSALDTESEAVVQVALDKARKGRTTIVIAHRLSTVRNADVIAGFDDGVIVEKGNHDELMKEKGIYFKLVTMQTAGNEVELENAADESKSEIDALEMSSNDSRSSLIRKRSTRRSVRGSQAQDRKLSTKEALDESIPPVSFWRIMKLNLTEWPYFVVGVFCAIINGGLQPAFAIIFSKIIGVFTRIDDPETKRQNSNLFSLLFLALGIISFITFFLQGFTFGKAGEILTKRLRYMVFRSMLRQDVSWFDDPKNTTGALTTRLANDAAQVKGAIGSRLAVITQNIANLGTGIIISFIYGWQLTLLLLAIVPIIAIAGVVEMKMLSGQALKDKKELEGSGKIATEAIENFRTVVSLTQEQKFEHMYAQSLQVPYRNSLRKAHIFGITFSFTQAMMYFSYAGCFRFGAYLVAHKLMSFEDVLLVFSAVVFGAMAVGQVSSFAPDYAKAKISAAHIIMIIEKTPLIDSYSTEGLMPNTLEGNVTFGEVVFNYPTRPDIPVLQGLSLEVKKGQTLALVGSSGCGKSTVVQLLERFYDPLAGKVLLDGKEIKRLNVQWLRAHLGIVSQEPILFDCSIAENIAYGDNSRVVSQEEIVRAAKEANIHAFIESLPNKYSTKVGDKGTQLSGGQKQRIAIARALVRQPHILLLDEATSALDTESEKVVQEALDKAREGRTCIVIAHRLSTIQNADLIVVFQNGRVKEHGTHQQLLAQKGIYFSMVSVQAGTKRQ
Experimental: 5×10^5 cells from each subline were loaded with 50 ng/ml of rhodamine 123 for 30 minutes at 37° C. in medium. The cells were washed and resuspended in dye-staining agent free medium for 3 hours at 37° C. to allow rhodamine 123 efflux. The cells were then washed twice and the fluorescence of intracellular rhodamine 123 were analysed with Flow cytometer (residual fluorescence FRES). The fluorescence was compared with loaded cells maintained at 4° C. to prevent drug export (maximal fluorescence FMAX). […] Cells from each subline that were not being exposed to rhodamine 123 were used as negative controls.
Rhodamine 123 (Rh123) retention, a P-gp functional assay, was studied in all cell lines. This assay was performed by incubating cells with Rh123 and determining Rh123 accumulation by measuring its fluorescence. The maximum load of Rh123 (FMAX) was quantified at the end of treatment harvesting the cells and storing them at 4° C. to prevent any active Rh123 efflux . The P-gp drug efflux was allowed incubating Rh123-loaded cells in fresh new medium Rh123-free for 3 hours at 37° C. After this incubation, residual fluorescence (FRES) was measured and compared to FMAX.

[3] = target: T2, human A3 adenosine receptor (Homo sapiens, UniProt P0DMS8); assay: biochemical
T2 sequence (P0DMS8 1-318): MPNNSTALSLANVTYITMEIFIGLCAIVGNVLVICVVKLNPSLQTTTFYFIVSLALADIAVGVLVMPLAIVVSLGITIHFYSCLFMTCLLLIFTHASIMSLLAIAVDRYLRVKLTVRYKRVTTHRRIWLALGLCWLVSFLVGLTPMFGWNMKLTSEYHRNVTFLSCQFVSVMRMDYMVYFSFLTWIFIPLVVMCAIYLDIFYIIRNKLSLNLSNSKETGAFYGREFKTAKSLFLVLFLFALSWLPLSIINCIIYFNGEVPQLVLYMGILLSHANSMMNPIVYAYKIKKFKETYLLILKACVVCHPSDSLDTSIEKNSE

[4] = system: human melanoma A375 cell line; assay: MTT growth inhibitory assay, A375; type: cell-based
[5] = system: human colon carcinoma HT29 cell line; assay: MTT growth inhibitory assay, HT29; type: cell-based; conditions: for IC50: HT-29
[6] = system: human pancreatic cancer Panc-1; assay: MTT growth inhibitory assay, Panc-1; type: cell-based; conditions: for IC50: Human Pancreatic Cancer Panc-1, read-out: IC50 growth inhibition, agent used separately
[7] = system: human lung carcinoma SKMES; assay: MTT growth inhibitory assay, SKMES; type: cell-based
[8] = Homo sapiens, A-375, Human Melanoma A375, read-out: IC50 growth inhibition, agent used separately
[9] = Human Colon Carcinoma HT29, read-out: IC50 growth inhibition, agent used separately
[10] = Human Lung Carcinoma SKMES, read-out: IC50 growth inhibition, agent used separately

Structure (SMILES): Nc1nc2ccc(Cl)cc2c2nc(-c3ccco3)nn12 [CGS 15943, 5-amino-9-chloro-2-(furyl) 1,2,4-triazolo[1,5-c]quinazoline, reference compound]
EC50 [1]: 12.6 ± 1.41 µM
inhibition of P-gp activity (in words) [2]: much lower effect on P-gp activity
Ki [3]: 0.118 ± 0.012 µM

Structure (SMILES): Nc1nc(NCCc2ccc(O)cc2)nc2nc(-c3ccco3)nn12 [drawing 13, reference compound]
% of Rh123 negative cells ([2]; 70 μM): 93.0 ± 1.1%

IC50 [4, 8]: 0.88 ± 0.19 µg/mL
IC50 [5, 9]: 1.05 ± 0.07 µg/mL
IC50 ([5]; Homo sapiens, HT29, irinotecan HCl 0.04-20 μg/ml, alone, read-out: IC50 of irinotecan HCl, A3 antagonist none): 0.96 µg/mL
IC50 [6]: 1.12 ± 0.29 µg/mL
IC50 ([7]; Homo sapiens, SKMES, irinotecan HCL 0.04-20 μg/ml, alone, read-out: IC50 of irinotecan HCL, A3 antagonist none): 1.17 µg/mL
IC50 [7, 10]: 1.23 ± 0.36 µg/mL
Structure (SMILES): CCc1c2c(nc3ccc(OC(=O)N4CCC(N5CCCCC5)CC4)cc13)-c1cc3c(c(=O)n1C2)COC(=O)[C@]3(O)CC [irinotecan HCL, reference compound]

Structure (SMILES): Nc1nc2ccc(Cl)cc2c2nc(-c3ccco3)nn12 [drawing 12, reference compound]
% of Rh123 negative cells ([2]; 70 μM): 87.1 ± 1.0%

Structure (SMILES): Nc1nc(NCCc2ccc(O)cc2)nc2nc(-c3ccco3)nn12 [ZM 241385, 4-(2-[7-amino-2-(2-furyl)-[1,2,4]triazolo[2,3-a][1,3,5]triazin-5-ylamino]ethyl)phenol, reference compound]
EC50 [1]: 25 ± 2.23 µM
inhibition of P-gp activity (in words) [2]: much lower effect on P-gp activity

IC50 [4, 8]: 49.3 ± 40.7 µg/mL (≈ 118 µM)
IC50 [5, 9]: 56.5 ± 8.3 µg/mL (≈ 135 µM)
IC50 [6]: 8 ± 5.7 µg/mL (≈ 19.2 µM)
IC50 [7, 10]: 36.3 ± 31.5 µg/mL (≈ 87 µM)
Structure (SMILES): CN(C)c1ccc(NC(=O)Nc2nc3nn(C)cc3c3nc(-c4ccco4)nn23)cc1 [IL-11, N-1-(4-dimethylamino-phenyl)-N′-5-[8-methyl-2-(2-furyl)-pyrazolo[4,3-e]1,2,4-triazolo[1,5-c]pyrimidine]-urea]
Enhancement Factor for docetaxel ([4]; A375, A3 antagonist 0.5 μg/ml): 5.3
Enhancement Factor for paclitaxel ([4]; A375, A3 antagonist 0.5 μg/ml): 3.1
Enhancement Factor for docetaxel ([4]; A375, A3 antagonist 5 μg/ml): 6.5
Enhancement Factor for paclitaxel ([4]; A375, A3 antagonist 5 μg/ml, paclitaxel 0.0001-0.05 μg/ml): 9.6
Enhancement Factor for paclitaxel ([4]; A375, A3 antagonist 5 μg/ml, paclitaxel 0.0002-0.1 μg/ml): 11.5
inhibition at 5 µg/mL ([4]; Homo sapiens, A-375, A375, 5 μg/ml, read-out: growth inhibition in the presence of A3 antagonist alone): 30 to 45%
Enhancement Factor for docetaxel ([5]; HT29, A3 antagonist 0.5 μg/ml): 6.4
Enhancement Factor for doxorubicin ([5]; HT29, A3 antagonist 0.5 μg/ml): 1.2
Enhancement Factor for irinotecan HCl ([5]; HT29, A3 antagonist 0.5 μg/ml): 1.1
Enhancement Factor for paclitaxel ([5]; HT29, A3 antagonist 0.5 μg/ml): 2.5
Enhancement Factor for docetaxel ([6]; Panc-1, A3 antagonist 0.5 μg/ml): 1.4
Enhancement Factor for docetaxel ([7]; SKMES, A3 antagonist 0.5 μg/ml): 1.9
Enhancement Factor for irinotecan HCL ([7]; SKMES, A3 antagonist 0.5 μg/ml): 1.9
Enhancement Factor for paclitaxel ([7]; SKMES, A3 antagonist 0.5 μg/ml): 4.2
Enhancement Factor for vinblastine ([7]; SKMES, A3 antagonist 0.5 μg/ml): 1.6

IC50 ([4]; Homo sapiens, A-375, A375 cell line, read-out: IC50 value): 0.0064 µg/mL (≈ 0.0118 µM)
IC50 ([5]; Homo sapiens, HT29, doxorubicin 0.0002-0.1 μg/ml, alone, read-out: IC50 of doxorubicin, A3 antagonist none): 0.46 µg/mL (≈ 0.846 µM)
IC50 ([5]; Homo sapiens, HT29 cell line, read-out: IC50 value): 0.211 µg/mL (≈ 0.388 µM)
Structure (SMILES): COc1cccc2c1C(=O)c1c(O)c3c(c(O)c1C2=O)C[C@@](O)(C(=O)CO)C[C@@H]3O[C@H]1C[C@H](N)[C@H](O)[C@H](C)O1 [doxorubicin, reference compound]
fold HT29 more refractory than A375 ([5]; ratio of IC50 HT29 vs A375): approximately 30 fold

Structure (SMILES): Cc1ccc(NC(=O)Nc2nc3nn(C)cc3c3nc(-c4ccco4)nn23)cc1 [drawing 11]
% of Rh123 negative cells ([2]; 10 μM): 22.0 ± 1.0%
